Data published in US11155550B2, “Histone deacetylase inhibitors and methods of use thereof” (Reaction Biology Corp., priority 2018, dated 2021).

These compounds were tested against T1, Recombinant human HDAC6 (Homo sapiens, UniProt Q9UBN7) (assay: Biochemical HDAC enzymatic assay, HDAC6). Settings: Table 1; incubation time 10 min.
T1 construct: full-length, MW=180 kDa; GST tag (N); made in house; host or cells: Sf9 insect cells (baculovirus)
T1 sequence (Q9UBN7 1-1215): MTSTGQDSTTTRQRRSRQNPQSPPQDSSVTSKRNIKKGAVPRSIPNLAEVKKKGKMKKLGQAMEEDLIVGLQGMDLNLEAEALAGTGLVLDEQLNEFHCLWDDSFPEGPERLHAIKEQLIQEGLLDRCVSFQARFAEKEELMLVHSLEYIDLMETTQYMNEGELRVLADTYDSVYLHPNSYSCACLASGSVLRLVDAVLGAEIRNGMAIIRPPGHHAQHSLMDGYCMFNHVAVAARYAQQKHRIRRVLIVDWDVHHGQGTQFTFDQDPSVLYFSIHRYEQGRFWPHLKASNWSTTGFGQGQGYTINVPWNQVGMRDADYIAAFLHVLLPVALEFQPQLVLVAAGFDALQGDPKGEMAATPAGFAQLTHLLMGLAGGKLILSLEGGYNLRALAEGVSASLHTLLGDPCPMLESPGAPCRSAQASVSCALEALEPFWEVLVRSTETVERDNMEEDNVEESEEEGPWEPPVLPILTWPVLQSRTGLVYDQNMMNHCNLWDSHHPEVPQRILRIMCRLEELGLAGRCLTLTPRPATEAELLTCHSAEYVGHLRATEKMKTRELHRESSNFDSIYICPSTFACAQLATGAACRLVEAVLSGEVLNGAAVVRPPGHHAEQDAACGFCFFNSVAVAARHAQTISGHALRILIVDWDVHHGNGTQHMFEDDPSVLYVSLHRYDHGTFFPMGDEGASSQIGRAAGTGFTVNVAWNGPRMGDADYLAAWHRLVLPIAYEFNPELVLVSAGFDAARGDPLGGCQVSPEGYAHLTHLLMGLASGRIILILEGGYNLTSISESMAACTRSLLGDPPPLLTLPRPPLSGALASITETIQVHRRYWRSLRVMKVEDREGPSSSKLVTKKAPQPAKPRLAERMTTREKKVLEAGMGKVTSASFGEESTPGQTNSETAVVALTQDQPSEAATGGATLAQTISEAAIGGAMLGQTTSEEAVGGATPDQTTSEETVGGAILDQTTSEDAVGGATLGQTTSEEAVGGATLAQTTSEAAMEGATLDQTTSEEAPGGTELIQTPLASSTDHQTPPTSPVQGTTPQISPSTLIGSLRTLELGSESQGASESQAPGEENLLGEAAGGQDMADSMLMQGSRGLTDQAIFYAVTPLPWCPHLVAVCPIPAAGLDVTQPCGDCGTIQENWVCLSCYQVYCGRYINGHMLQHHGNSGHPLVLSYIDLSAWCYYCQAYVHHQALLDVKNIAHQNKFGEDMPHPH
Experimental: Incubation time for HDAC1/2 is 120 min, and 10 min for other HDACs.
Recombinant human HDAC6 (GenBank Accession No. BC069243), full-length, MW=180 kDa, was expressed by baculovirus in Sf9 insect cells using an N-terminal GST tag.
(§1) • I. Compound handling: Testing compounds were dissolved in 100% DMSO to a specific concentration. The serial dilution was conducted by epMotion 5070 in DMSO. • II. HDAC reaction buffer: 50 mM Tris-HCl, pH8.0, 137 mM NaCl, 2.7 mM KCl, and 1 mM MgCl2, Added fresh: 1 mg/ml BSA, 1% DMSO. • III. Substrate: Fluorogenic HDAC General Substrate for HDAC1, 2, 3, 6, 10, 11 ans Sirt1, 2 and 3: Arg-His-Lys-Lys(Ac); HDAC8 only substrate: Arg-His-Lys(Ac)-Lys(Ac); Class2A Substrate (HDAC4, 5, 7 and 9): Acetyl-Lys(trifluoroacetyl)-AMC; Sirt5 substrate: Ac-Lys(succinyl)-AMC. • IV. General Reaction Procedure: (Standard IC50 determination) • a. Delivered 2× enzyme in wells of reaction plate except No Enzyme (No En) control wells. Add buffer in No En wells. • b. Delivered compounds in 100% DMSO into the enzyme mixture by Acoustic technology (Echo550; nanoliter range). Spin down and pre-incubation. • c. Delivered 2× Substrate Mixture (Fluorogenic HDAC Substrate and co-factor (500 μM of Nicotinamide adenine dinucleotide (NAD^+) in all Sirt assay) in all reaction wells to initiate the reaction. Spin and shake. • d. Incubated for 1-2 hr. at 30° C. with seal. • e. Added Developer with Trichostatin A (or TMP269 or NAD^+) to stop the reaction and to generate fluorescent color. • f. Fluorescence was read (excitatory, 360; emission, 460) using the EnVision Multilabel Plate Reader (Perkin Elmer) • g. Endpoint reading was taken for analysis after the development reaches plateau. • V. Data Analysis: The percentages of enzyme activity (relative to DMSO controls) and IC50 values were calculated using the GraphPad Prism 4 program based on a sigmoidal dose-response equation.
The inhibitory activities of HDAC of compounds of the invention were determined using biochemical HDAC assays. Compounds were tested at the indicated doses in the biochemical assays of HDAC1, HDAC2, HDAC3, HDAC4, HDAC5, HDAC6, HDAC7, HDAC8, HDAC9, HDAC10, or HDAC11 enzyme. The curve fit and IC50 values were calculated using the GraphPad Prism 4 program based on a sigmoidal dose-response equation.
as §1, with “[…]” for “μM”, “equation. […]” for “equation.”
With `Nc1ccc(-c2cccs2)cc1NC(=O)c1ccc(CN2C(=O)CCCC23CNC3)cc1` [Example 1, N-(2-amino-5-(thiophen-2-yl)phenyl)-4-((6-oxo-2,5-diazaspiro[3.5]nonan-5-yl)methyl)benzamide] the IC50 was greater than 20000 nM.
In the case of `CN1CCC2(CC1)CN(c1ccc(C(=O)Nc3cc(-c4cccs4)ccc3N)cn1)C(=O)O2` [Example 4, N-(2-amino-5-(thiophen-2-yl)phenyl)-6-(8-methyl-2-oxo-1-oxa-3,8-diazaspiro[4.5]decan-3-yl)nicotinamide], the IC50 is reported as greater than 20000 nM.
Work on `Nc1ccc(-c2cccs2)cc1NC(=O)c1ccc(CN2C(=O)CCC23CCNCC3)cc1` [Example 2, N-(2-amino-5-(thiophen-2-yl)phenyl)-4-((2-oxo-1,8-diazaspiro[4.5]decan-1-yl)methyl)benzamide] yielded an IC50 greater than 20000 nM.
For `Nc1ccc(-c2cccs2)cc1NC(=O)c1ccc(N2CC3(CCNCC3)CCC2=O)nc1` [Example 6, N-(2-amino-5-(thiophen-2-yl)phenyl)-6-(3-oxo-2,9-diazaspiro[5.5]undecan-2-yl)nicotinamide], the IC50 was greater than 20000 nM.
For `Nc1cc(F)ccc1NC(=O)c1ccc(CN2C(=O)CCCC23CNC3)cc1` [Example 3, N-(2-amino-4-fluorophenyl)-4-((6-oxo-2,5-diazaspiro[3.5]nonan-5-yl)methyl)benzamide], the IC50 was greater than 10000 nM.
`Nc1ccc(-c2ccc(F)cc2)cc1NC(=O)c1ccc(N2CC3(CCOCC3)OC2=O)nc1` [Example 5, N-(4-amino-4′-fluoro-[1,1′-biphenyl]-3-yl)-6-(2-oxo-1,8-dioxa-3-azaspiro[4.5]decan-3-yl)nicotinamide] gave an IC50 greater than 20000 nM.

Same assay, conditions: Table 2; incubation time 10 min
For `O=C(NO)c1ccc(CN2C(=O)c3ccccc3C23CCN(C2CC2)CC3)cc1` [Compound Example 12, 4-((1′-cyclopropyl-3-oxospiro[isoindoline-1,4′-piperidin]-2-yl)methyl)-N-hydroxybenzamide], the IC50 was 26 nM.
With `O=C(NO)c1ccc(CN2C(=O)c3ccccc3C23CCNCC3)cc1` [Compound Example 10, N-hydroxy-4-((3-oxospiro[isoindoline-1,4′-piperidin]-2-yl)methyl)benzamide] the IC50 was 205 nM.
Compound `O=C(NO)c1ccc(CN2C(=O)C3(CCOC3)c3ccccc32)cc1` (centres unmarked) [Compound Example 9] has an IC50 of 4.5 nM.
`O=C(NO)c1ccc(CN2C(=O)c3ccccc3C23OCCO3)cc1` [Compound Example 8, N-hydroxy-4-((3-oxospiro[isoindoline-1,2′-[1,3]dioxolan]-2-yl)methyl)benzamide] was tested, and the IC50 was 29 nM.
With `CN(C)C(=O)N1CCC2(CC1)c1ccccc1C(=O)N2Cc1ccc(C(=O)NO)cc1` [Compound Example 11, 2-(4-(hydroxycarbamoyl)benzyl)-N,N-dimethyl-3-oxospiro[isoindoline-1,4′-piperidine]-1′-carboxamide] the IC50 was 35 nM.
